Converted amounts (≈) assume the structure as drawn.
Assays:
physchem [1] = details: pH 7.4 buffer
physchem [2] = details: octan-1-ol/water

Structure (SMILES)	solubility thermodynamic (physchem [1]) [µM]	further results
COc1cc2ncnc(Nc3cccc(Cl)c3F)c2cc1CN(C(C)C)[C@@H](C)C(N)=O	1 (≈ 0.446 µg/mL)	
CCN(CCO)CCCOc1cc2ncnc(Nc3ncc(CC(=O)Nc4cccc(F)c4)s3)c2cc1OC	0.6 (≈ 0.333 µg/mL)	
CN(C)CCNS(=O)(=O)c1ccc(Nc2nccc(-c3cnc4cccnn34)n2)cc1	93.3 (≈ 40.9 µg/mL)	
O=C(NCc1ccccc1)c1cccn(Cc2ccccc2)c1=O	26.3 (≈ 8.37 µg/mL)	
N#CC1(NC(=O)[C@@H]2CCCC[C@H]2C(=O)N2CCc3[nH]c4ccc(Cl)cc4c3C2)CC1	129 (≈ 54.7 µg/mL)	
CN(C(=O)Cc1ccc(S(C)(=O)=O)cc1F)C1CCN(Cc2ccc(C(F)(F)F)cc2)CC1	74.1 (≈ 36.1 µg/mL)	
O=C(Cc1ccccc1)Nc1ccccc1O	246 (≈ 55.8 µg/mL)	
O=C(c1ccc(F)cc1)C1CCN(C(=O)c2ccc(OC(F)(F)F)cc2)CC1	11.5 (≈ 4.55 µg/mL)	
CC(C)c1cc(C(=O)N[C@@H](Cc2cccc(Cl)c2)C(=O)NCC#N)n(C)n1	47.9 (≈ 18.6 µg/mL)	
CCn1cc(NC(=O)Cc2ccc(Oc3ccnc4cc(OC)ccc34)cc2OC)cn1	3.2 (≈ 1.38 µg/mL)	
CC(C)CCn1c(Cn2c(=O)n(C3CC3)c(=O)c3ccccc32)nc2cc(CN)ccc21	70.8 (≈ 30.6 µg/mL)	
CC(C)N1CCN(Cc2cnc(-c3ccc(C(=O)Nc4ccccc4N)cc3)c(C#N)c2)CC1	1350 (≈ 613 µg/mL)	
O=C(Nc1cccnc1)c1ccc(OCCCN2CCCC2)cc1OCc1ccccc1	209 (≈ 90.1 µg/mL)	
CCN(CC)C(=O)C(C)(C)c1ccc2[nH]c(-c3cc(C)cc(C)c3)c(CCNCCCCc3ccncc3)c2c1	141 (≈ 76.1 µg/mL)	
O=C1NC(=O)C2(CCc3ccccc3C2)N1 (stereo unspecified) [TETRANTOIN]	224 (≈ 48.4 µg/mL)	
O=C(NCc1ccccc1)c1ccc(=O)oc1	135 (≈ 30.9 µg/mL)	
CCN(C(=O)Cc1ccc(S(C)(=O)=O)cc1)C1CCN(CC[C@@H](c2ccccc2)N2CCN(S(=O)(=O)CC(F)(F)F)CC2)CC1	490 (≈ 330 µg/mL)	
Oc1cc(-c2ccccc2)nc2c(O)cccc12	41.7 (≈ 9.89 µg/mL)	
COc1cc(-c2cnc(N)c(-c3nc4ccccc4[nH]3)c2)cc(OC)c1OC	0.5 (≈ 0.188 µg/mL)	
C[C@@H](Oc1cccc2ncnc(Nc3ccc4c(cnn4Cc4ccccn4)c3)c12)C(N)=O	4 (≈ 1.76 µg/mL)	
CNC(=O)[C@@H](NC(=O)[C@H](CC(C)C)[C@H](OCc1cc2ccccc2n(C)c1=O)C(=O)NO)C(C)(C)C	269 (≈ 135 µg/mL)	
COc1ccc(C(=O)Nc2nccs2)cc1OC	132 (≈ 34.8 µg/mL)	

Structure (SMILES)	solubility thermodynamic (physchem [1]) [µM]	further results
CN(C)C(=O)[C@H](Cc1ccccc1)NC(=O)c1cc2cc(Br)sc2[nH]1	0.9 (≈ 0.378 µg/mL)	
N#CC1(NC(=O)[C@@H]2CCCC[C@H]2C(=O)N2CCc3[nH]c4c(OC(F)(F)F)cccc4c3C2)CC1	123 (≈ 58.4 µg/mL)	
COc1cccc(NC(=O)Cc2ccc(Oc3ncnc4cc(OC)c(OC)cc34)cc2)c1	2 (≈ 0.891 µg/mL)	
COc1ccc2c(Oc3ccc(CC(=O)Nc4cc(C)cc(CN(C)C)c4)c(OC)c3)ccnc2c1	1.8 (≈ 0.874 µg/mL)	
O=c1[nH]c2cc(Cl)c([N+](=O)[O-])cc2c(O)c1-c1ccccc1	29.5 (≈ 9.34 µg/mL)	
O=C(c1ccc(F)cc1)C1CCN(C(=O)N2CCOCC2)CC1	1150 (≈ 368 µg/mL)	
Cc1ccc(C(=O)C(=O)c2ccc(C)cc2)cc1	2.1 (≈ 0.5 µg/mL)	
CC(C)Oc1cc(O[C@@H](C)c2ccccc2)cc(C(=O)Nc2ccc(C(=O)O)cn2)c1	89.1 (≈ 37.5 µg/mL)	
COc1cc2ncnc(Nc3cc(NC(=O)c4ccccc4)ccc3Cl)c2cc1OC	10 (≈ 4.35 µg/mL)	
N#CCNC(=O)[C@@H]1CCCC[C@H]1C(=O)N1CCN(c2ccccc2)CC1	631 (≈ 224 µg/mL)	
Cc1cc(OC2CCN(CC3CCN([C@@](C)(Cc4ccc(F)cc4)C(=O)O)CC3)CC2)ccc1Cl	204 (≈ 103 µg/mL)	
O=c1cc(-c2cccc3c2Sc2ccccc2S3)oc(N2CCOCC2)c1 [KU-55933]	7.1 (≈ 2.81 µg/mL)	
CN(C(=O)Cc1ccc(-n2cnnn2)cc1)[C@@H]1CCN(Cc2ccc(C(F)(F)F)nc2)C[C@@H]1F	95.5 (≈ 45.6 µg/mL)	
O=C(Nc1ccc(N2CCOCC2)nc1)c1nnc(Nc2ccc(Cl)cc2)o1	1 (≈ 0.401 µg/mL)	
O=C(Nc1ccccc1)Nc1cnns1 [THIDIAZURON]	178 (≈ 39.2 µg/mL)	
CNC(=O)c1c(-c2ccc(F)cc2)oc2cc(N(CCO)S(C)(=O)=O)c(C3CC3)cc12 [NESBUVIR]	60.3 (≈ 26.9 µg/mL)	
COCCOc1cc2nccc(Nc3ccc(Cl)cc3F)c2cc1OC	33.9 (≈ 12.8 µg/mL)	
COCCN(C)C(=O)[C@@H](C)Oc1cccc2ncnc(Nc3ccc(Oc4ccc(C)nc4)c(C)c3)c12	11.2 (≈ 5.62 µg/mL)	
CC#CC(=O)Nc1ccc2ncnc(Nc3cccc(Br)c3)c2c1	0.8 (≈ 0.305 µg/mL)	
C[C@@H](CN(C)C(=O)CO)Oc1cccc2ncnc(Nc3ccc(OCc4ccccn4)c(Cl)c3)c12	8.9 (≈ 4.52 µg/mL)	
CN(C)C(=O)[C@H](Cc1ccccc1)NC(=O)c1cc2cc(Cl)sc2[nH]1	1.5 (≈ 0.564 µg/mL)	
CC(=O)Nc1ccc(-c2ccccc2)cc1	79.4 (≈ 16.8 µg/mL)	

Structure (SMILES)	solubility thermodynamic (physchem [1]) [µM]	further results
O=C(Cc1ccccc1)Nc1ccc(N2CCCC2)cc1	1.1 (≈ 0.308 µg/mL)	
O=C(c1ccc(F)cc1)C1CCN(C(=O)c2ccccc2Cl)CC1	28.8 (≈ 9.96 µg/mL)	
c1ccc(-c2cnn3cc(-c4ccncc4)cnc23)cc1	0.9 (≈ 0.245 µg/mL)	
CC(C)(C)OC(=O)N1C[C@@H]2CC[C@H]1CN2c1ncc(OCc2ccc(S(C)(=O)=O)cc2)cn1	7.1 (≈ 3.37 µg/mL)	
CCCNc1nc2ccccc2c(=O)[nH]1	537 (≈ 109 µg/mL)	
Cn1cc(C(=O)CCCCOc2ccc(C(=O)O)cc2)cc1C=O	1200 (≈ 396 µg/mL)	
CC(C)C(NC(=O)c1cnoc1C(C)(C)C)C(=O)c1ccc(C#N)cc1 (stereo unspecified)	20 (≈ 7.07 µg/mL)	
COc1cc2ncnc(Nc3ccc(F)c(Cl)c3)c2cc1CN(C)[C@H](C)C(N)=O	15.5 (≈ 6.48 µg/mL)	
c1ccc(-c2nc(-c3ccccc3)c(-c3ccccc3)o2)cc1	1.9 (≈ 0.565 µg/mL)	
CCN(CCO)CCCOc1ccc2c(Nc3cc(CC(=O)Nc4cccc(F)c4F)[nH]n3)ncnc2c1	93.3 (≈ 49 µg/mL)	
Cc1cc(C)cc(-c2[nH]c3sc(C(C)(C)C(=O)N4C5CCC4CC5)cc3c2C(=O)CN2CCC(C(=O)N3CCOCC3)CC2)c1	72.4 (≈ 45.7 µg/mL)	
O=C(O)Cc1cccc(-c2ccc(NC(=O)c3nnc(Nc4ccccc4F)o3)cc2)c1	257 (≈ 111 µg/mL)	
COc1cc2ncnc(Oc3ccc(CC(=O)Nc4ccc(N(C)C)cn4)cc3)c2cc1OC	1.6 (≈ 0.735 µg/mL)	
COc1cc(C2CCNCC2)ccc1Nc1ncc(Cl)c(-c2cnc3ccccn23)n1	44.7 (≈ 19.4 µg/mL)	
CS(=O)(=O)Cc1cc(N2CCOCC2)nc(-c2ccc3[nH]ccc3c2)n1	9.3 (≈ 3.46 µg/mL)	
O=C(NCc1ccc(C(=O)NO)cc1)OCc1cccnc1	1380 (≈ 416 µg/mL)	
CC(=O)N1CCC(n2cc(-c3cnc(N)c(-c4nc5ccccc5o4)c3)cn2)CC1	1.7 (≈ 0.684 µg/mL)	
Cn1cnc(-c2cccc(NC(=O)Nc3cc(C(F)(F)F)ccc3F)c2)c1-c1cc2c(N)ncnc2s1	0.5 (≈ 0.264 µg/mL)	
N#CC1(NC(=O)[C@@H]2CCCC[C@H]2C(=O)N2CCc3oc4ccccc4c3C2)CC1	575 (≈ 225 µg/mL)	
c1ccc(-c2ccc(C(c3ccccc3)n3ccnc3)cc2)cc1 (stereo unspecified) [BIFONAZOLE]	1.1 (≈ 0.341 µg/mL)	
COc1ccc(OC)c(NC(=O)Cc2cccs2)c1	74.1 (≈ 20.6 µg/mL)	
CC(C)Cn1c(=O)n(C)c(=O)c2c(C(=O)N3C[C@H](O)CO3)c(Cc3c[nH]c4ncccc34)sc21		logD (physchem [2]; pH 7.4, LogD7.4): 2.04

Structure (SMILES)	solubility thermodynamic (physchem [1]) [µM]	further results
CCC(c1nc2ccsc2c(=O)n1Cc1ccc(OC)cc1)N(CCCN)C(=O)c1ccc(C)cc1 (stereo unspecified)		logD (physchem [2]; pH 7.4, LogD7.4): 2.15
CC1CN(C(=O)c2nnc3c(-c4ncccn4)cccc3c2N)C1		logD (physchem [2]; pH 7.4, LogD7.4): 1.21
CCCC(=O)NCc1cncc(-c2ccc(F)cc2OC)c1		logD (physchem [2]; pH 7.4, LogD7.4): 2.9
Cc1cccc(C#Cc2ccccc2)n1		logD (physchem [2]; pH 7.4, LogD7.4): 3.6
CCn1cc(C(=O)O)c(=O)c2cc(F)c(N3CCNCC3)cc21 [NORFLOXACIN]		logD (physchem [2]; pH 7.4, LogD7.4): -0.87
COc1ccc2cc(CCC(C)=O)ccc2c1 [NABUMETONE]		logD (physchem [2]; pH 7.4, LogD7.4): 3.06
C=CCNS(=O)(=O)c1ccc(NC(=O)[C@@](C)(O)C(F)(F)F)c(Cl)c1		logD (physchem [2]; pH 7.4, LogD7.4): 3.07
NC(=O)c1ccccc1O [SALICYLAMIDE]		logD (physchem [2]; pH 7.4, LogD7.4): 1.09
NC(=O)C[S+]([O-])C(c1ccccc1)c1ccccc1 (stereo unspecified) [MODAFINIL]		logD (physchem [2]; pH 7.4): 1.12
CCN(C)C(=O)c1ccc(C(=C2CCN(Cc3ccc(F)cc3)CC2)c2ccccc2NC(C)=O)cc1		logD (physchem [2]; pH 7.4): 2.79
CCC1(c2ccc(N)cc2)CCC(=O)NC1=O (stereo unspecified) [AMINOGLUTETHIMIDE]		logD (physchem [2]; pH 7.4): 0.6
Cc1cc(Cl)ccc1OC1CCN(C[C@H](O)CNC(=O)c2c[nH]c(=O)c3c(F)cccc23)CC1		logD (physchem [2]; pH 7.4, LogD7.4): 3
Cc1ccc(-c2ccc(S(=O)(=O)N3CCC[C@H]3C(=O)N3CC[C@@H](N)C3)cc2F)o1		logD (physchem [2]; pH 7.4, LogD7.4): 1.2
CC(C)Cn1c(=O)n(C)c(=O)c2c(C(=O)N3CC[C@@H](O)C3)c(Cc3ccnc4ccccc34)sc21		logD (physchem [2]; pH 7.4, LogD7.4): 1.65
O=C1CCOc2nc(CCc3ccccc3)ccc21		logD (physchem [2]; pH 7.4, LogD7.4): 2.5
Cc1ccc2c(-c3ccnc4cc(Cl)ccc34)c(C)n(CC(=O)O)c2c1		logD (physchem [2]; pH 7.4, LogD7.4): 2.41
Cc1ccc(-n2[nH]c(=O)c3cccnc32)cc1		logD (physchem [2]; pH 7.4, LogD7.4): 2.1
CCCc1c(OCc2ccc(C(=O)O)cc2)ccc(C(C)=O)c1O		logD (physchem [2]; pH 7.4, LogD7.4): 2.1
CC(C)N1CCN(C(=O)NCc2ccc(Cl)c(Cl)c2)CC1		logD (physchem [2]; pH 7.4, LogD7.4): 2.75
Cn1nnc2c(C(N)=O)ncn2c1=O [TEMOZOLOMIDE]		logD (physchem [2]; pH 7.4, LogD7.4): -1.08
